Experimental findings from patent publication US20250144099A1, “INK4 TUMOR SUPPRESSOR PROTEINS MEDIATE RESISTANCE TO CDK4/6 KINASE INHIBITORS” (MEMORIAL SLOAN-KETTERING CANCER CENTER, priority 2021, published 2025) are described below.

Test [1] concerns CDK6 expression in PTEN knockdown cells. Briefly: Immunoblotting of CDK6 expression in PTEN knockdown cells. Particulars: MK-2206 as printed. Details: dose or concentration left out as unconfirmed. In kind it is cell-based, human. The protocol:
Cell lysates were collected in RIPA buffer (Thermo Fisher Scientific) supplemented with protease and phosphatase inhibitors (Pierce). Protein concentration was quantified by using the BCA kit (Fisher Scientific). […] of protein lysates were loaded onto 4-12% SDS-PAGE gels (Invitrogen) for electrophoresis and transferred onto nitrocellular membranes. Blots were blocked with Intercept™ (TBS) Blocking Buffer (LI-COR Bioscience #927-60001) and incubated with primary antibody at 4° C. overnight. Secondary antibodies conjugated with fluorescence (LI-COR Bioscience #926-68071 and #926-32210) were incubated for 1 h at room temperature and blots were scanned by Odyssey Clx Imaging System from LI-COR Bioscience.
On the technique in general: Immunoblotting shows a protein as a band on a membrane.

A further test deals with CDK6 (Homo sapiens, UniProt Q00534). Kind of test: IP-in vitro kinase assay (ADP-Glo, Rb substrate) of immunoprecipitated CDK6. Particulars: IP-CDK6 from resistant CDK6-high (FAT1 loss) MCF7 cells, pre-treatment with 100 nM abemaciclib. The test is classed as biochemical. Details: Upregulation of wild-type CDK6 expression as a recurrent mechanism; endogenous in cells; host or cells: MCF-7 FAT1 CRISPR knockout (CDK6-high) cells. The protocol:
IP-in vitro kinase assay. […] Lysates were collected as described above. […] of cell lysates were incubated with […] CDK4 (# sc-23896, Santa Cruz Biotechnology) or CDK6 (# sc-177-G, Santa Cruz Biotechnology) antibody at 4° C. overnight. 20 μl of ChIP-grade magnetic beads (Thermo Fisher Scientific) was added into each IP tube and incubated for 2 hours. IP samples were washed 2 times with kinase lysis buffer and 2 times with kinase reaction buffer (40 mM Tris-HCl [pH 7.5], 20 mM MgCl2, 0.1 mg/ml BSA, from SignalChem, #K03-09, with […] DTT adding freshly). 100 μl of kinase reaction buffer with 0.5 μg of recombinant human Rb1 protein and 100 μM of ATP was added into each tube.
A general note: ADP-Glo turns the ADP formed in a reaction into a luminescent signal.

CDK6, sequence (Q00534 whole entry): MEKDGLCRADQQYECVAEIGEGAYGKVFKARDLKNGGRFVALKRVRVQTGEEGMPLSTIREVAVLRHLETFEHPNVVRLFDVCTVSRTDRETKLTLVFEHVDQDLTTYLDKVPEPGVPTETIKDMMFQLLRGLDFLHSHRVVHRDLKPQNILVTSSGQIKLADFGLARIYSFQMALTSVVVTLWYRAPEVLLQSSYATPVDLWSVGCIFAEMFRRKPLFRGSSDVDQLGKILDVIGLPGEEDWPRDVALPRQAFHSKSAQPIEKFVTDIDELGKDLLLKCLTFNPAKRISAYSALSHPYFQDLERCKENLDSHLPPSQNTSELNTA
CDK6, sequence (P30281 whole entry partner): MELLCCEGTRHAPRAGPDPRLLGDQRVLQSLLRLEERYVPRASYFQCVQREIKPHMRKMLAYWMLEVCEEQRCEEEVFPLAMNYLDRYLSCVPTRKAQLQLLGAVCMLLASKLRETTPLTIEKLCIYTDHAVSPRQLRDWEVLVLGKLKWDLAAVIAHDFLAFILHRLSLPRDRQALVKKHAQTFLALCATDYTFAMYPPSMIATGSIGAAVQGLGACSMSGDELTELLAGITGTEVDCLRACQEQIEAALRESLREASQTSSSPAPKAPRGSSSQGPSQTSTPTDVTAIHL

As for `NC1(c2ccc(-c3nc4ccn5c(=O)[nH]nc5c4cc3-c3ccccc3)cc2)CCC1` [MK-2206], the CDK6 expression entry in test [1] is listed as “suppressed the expression of CDK6”.

For the molecule `CCN1CCN(Cc2ccc(Nc3ncc(F)c(-c4cc(F)c5nc(C)n(C(C)C)c5c4)n3)nc2)CC1` [abemaciclib], on CDK6, the “CDK6 activity reduced compared to untreated” value is given as 48%.
